Measurements published in ChEMBL document CHEMBL1201861, “Genomics of Drug Sensitity in Cancer screening data, Wellcome Trust Sanger Institute”.

How the values were obtained:
Assay in all cases: cells
Details in all cases: Homo sapiens
NCI-H23 = format: functional, cell-based
Description: SANGER: Inhibition of human NCI-H23 cell growth in a cell viability assay.

PSN1 = format: functional, cell-based
Description: SANGER: Inhibition of human PSN1 cell growth in a cell viability assay.

SCH = format: functional, cell-based
Description: SANGER: Inhibition of human SCH cell growth in a cell viability assay.

EFO-21 = format: functional, cell-based
Description: SANGER: Inhibition of human EFO-21 cell growth in a cell viability assay.

P30-OHK = format: functional, cell-based
Description: SANGER: Inhibition of human P30-OHK cell growth in a cell viability assay.

TE-11 = format: functional, cell-based
Description: SANGER: Inhibition of human TE-11 cell growth in a cell viability assay.

IST-MES1 = format: functional, cell-based
Description: SANGER: Inhibition of human IST-MES1 cell growth in a cell viability assay.

A498 = format: functional, cell-based
Description: SANGER: Inhibition of human A498 cell growth in a cell viability assay.

PANC-08-13 = format: functional, cell-based
Description: SANGER: Inhibition of human PANC-08-13 cell growth in a cell viability assay.

VM-CUB-1 = format: functional, cell-based
Description: SANGER: Inhibition of human VM-CUB-1 cell growth in a cell viability assay.

LS-123 = format: functional, cell-based
Description: SANGER: Inhibition of human LS-123 cell growth in a cell viability assay.

EKVX = format: functional, cell-based
Description: SANGER: Inhibition of human EKVX cell growth in a cell viability assay.

HEL = format: functional, cell-based
Description: SANGER: Inhibition of human HEL cell growth in a cell viability assay.

no-11 = format: functional, cell-based
Description: SANGER: Inhibition of human no-11 cell growth in a cell viability assay.

SJSA-1 = format: functional, cell-based
Description: SANGER: Inhibition of human SJSA-1 cell growth in a cell viability assay.

SH-4 = format: functional, cell-based
Description: SANGER: Inhibition of human SH-4 cell growth in a cell viability assay.

NCI-H526 = format: functional, cell-based
Description: SANGER: Inhibition of human NCI-H526 cell growth in a cell viability assay.

LU-139 = format: functional, cell-based
Description: SANGER: Inhibition of human LU-139 cell growth in a cell viability assay.

NCI-H1770 = format: functional, cell-based
Description: SANGER: Inhibition of human NCI-H1770 cell growth in a cell viability assay.

CAS-1 = format: functional, cell-based
Description: SANGER: Inhibition of human CAS-1 cell growth in a cell viability assay.

OVCAR-4 = format: functional, cell-based
Description: SANGER: Inhibition of human OVCAR-4 cell growth in a cell viability assay.

KURAMOCHI = format: functional, cell-based
Description: SANGER: Inhibition of human KURAMOCHI cell growth in a cell viability assay.

G-401 = format: functional, cell-based
Description: SANGER: Inhibition of human G-401 cell growth in a cell viability assay.

NCI-H1092 = format: functional, cell-based
Description: SANGER: Inhibition of human NCI-H1092 cell growth in a cell viability assay.

LB2518-MEL = format: functional, cell-based
Description: SANGER: Inhibition of human LB2518-MEL cell growth in a cell viability assay.

NH-12 = format: functional, cell-based
Description: SANGER: Inhibition of human NH-12 cell growth in a cell viability assay.

EC-GI-10 = format: functional, cell-based
Description: SANGER: Inhibition of human EC-GI-10 cell growth in a cell viability assay.

NCI-H69 = format: functional, cell-based
Description: SANGER: Inhibition of human NCI-H69 cell growth in a cell viability assay.

HH = format: functional, cell-based
Description: SANGER: Inhibition of human HH cell growth in a cell viability assay.

NCI-H1838 = format: functional, cell-based
Description: SANGER: Inhibition of human NCI-H1838 cell growth in a cell viability assay.

SK-N-FI = format: functional, cell-based
Description: SANGER: Inhibition of human SK-N-FI cell growth in a cell viability assay.

RCC10RGB = format: functional, cell-based
Description: SANGER: Inhibition of human RCC10RGB cell growth in a cell viability assay.

GB-1 = format: functional, cell-based
Description: SANGER: Inhibition of human GB-1 cell growth in a cell viability assay.

SF-268 = format: functional, cell-based
Description: SANGER: Inhibition of human SF268 cell growth in a cell viability assay.

TGBC1TKB = format: functional, cell-based
Description: SANGER: Inhibition of human TGBC1TKB cell growth in a cell viability assay.

RXF 393 = format: functional, cell-based
Description: SANGER: Inhibition of human RXF393 cell growth in a cell viability assay.

EFM-19 = format: functional, cell-based
Description: SANGER: Inhibition of human EFM-19 cell growth in a cell viability assay.

KYSE-410 = format: functional, cell-based
Description: SANGER: Inhibition of human KYSE-410 cell growth in a cell viability assay.

MV4-11 = format: functional, cell-based, MV-4-11
Description: SANGER: Inhibition of human MV-4-11 cell growth in a cell viability assay.

LB2241-RCC = format: functional, cell-based
Description: SANGER: Inhibition of human LB2241-RCC cell growth in a cell viability assay.

Lu-65 = format: functional, cell-based
Description: SANGER: Inhibition of human LU-65 cell growth in a cell viability assay.

ATN-1 = format: functional, cell-based
Description: SANGER: Inhibition of human ATN-1 cell growth in a cell viability assay.

SK-MEL-1 = format: functional, cell-based
Description: SANGER: Inhibition of human SK-MEL-1 cell growth in a cell viability assay.

NCI-H720 = format: functional, cell-based
Description: SANGER: Inhibition of human NCI-H720 cell growth in a cell viability assay.

NCI-H446 = format: functional, cell-based
Description: SANGER: Inhibition of human NCI-H446 cell growth in a cell viability assay.

COLO-320-HSR = format: functional, cell-based
Description: SANGER: Inhibition of human COLO-320-HSR cell growth in a cell viability assay.

ES6 = format: functional, cell-based
Description: SANGER: Inhibition of human ES6 cell growth in a cell viability assay.

SK-MEL-2 = format: functional, cell-based
Description: SANGER: Inhibition of human SK-MEL-2 cell growth in a cell viability assay.

NKM-1 = format: functional, cell-based
Description: SANGER: Inhibition of human NKM-1 cell growth in a cell viability assay.

KGN = format: functional, cell-based
Description: SANGER: Inhibition of human KGN cell growth in a cell viability assay.

EW-13 = format: functional, cell-based
Description: SANGER: Inhibition of human EW-13 cell growth in a cell viability assay.

SW982 = format: functional, cell-based
Description: SANGER: Inhibition of human SW982 cell growth in a cell viability assay.

MN-60 = format: functional, cell-based
Description: SANGER: Inhibition of human MN-60 cell growth in a cell viability assay.

TE-1 = format: functional, cell-based
Description: SANGER: Inhibition of human TE-1 cell growth in a cell viability assay.

LU-99A = format: functional, cell-based
Description: SANGER: Inhibition of human LU-99A cell growth in a cell viability assay.

LU-134-A = format: functional, cell-based
Description: SANGER: Inhibition of human LU-134-A cell growth in a cell viability assay.

HuP-T4 = format: functional, cell-based
Description: SANGER: Inhibition of human HuP-T4 cell growth in a cell viability assay.

NCI-H630 = format: functional, cell-based
Description: SANGER: Inhibition of human NCI-H630 cell growth in a cell viability assay.

L-363 = format: functional, cell-based
Description: SANGER: Inhibition of human L-363 cell growth in a cell viability assay.

EW-11 = format: functional, cell-based
Description: SANGER: Inhibition of human EW-11 cell growth in a cell viability assay.

NCI-H1355 = format: functional, cell-based
Description: SANGER: Inhibition of human NCI-H1355 cell growth in a cell viability assay.

KARPAS-299 = format: functional, cell-based
Description: SANGER: Inhibition of human KARPAS-299 cell growth in a cell viability assay.

M14 = format: functional, cell-based
Description: SANGER: Inhibition of human M14 cell growth in a cell viability assay.

KG-1 = format: functional, cell-based
Description: SANGER: Inhibition of human KG-1 cell growth in a cell viability assay.

LAN-6 = format: functional, cell-based
Description: SANGER: Inhibition of human LAN-6 cell growth in a cell viability assay.

## C[C@]12O[C@H](C[C@]1(O)CO)n1c3ccccc3c3c4c(c5c6ccccc6n2c5c31)CNC4=O [LESTAURTINIB]
NCI-H23
  IC50: 1.69 µM
PSN1
  IC50: 0.231 µM
SCH
  IC50: > 2 µM
EFO-21
  IC50: > 2 µM
P30-OHK
  IC50: 0.128 µM
TE-11
  IC50: 0.609 µM
IST-MES1
  IC50: > 2 µM
A498
  IC50: 0.221 µM
PANC-08-13
  IC50: > 2 µM
VM-CUB-1
  IC50: 0.651 µM
LS-123
  IC50: > 2 µM
EKVX
  IC50: 0.606 µM
HEL
  IC50: 0.204 µM
no-11
  IC50: > 2 µM
SJSA-1
  IC50: 0.216 µM
SH-4
  IC50: 0.11 µM
NCI-H526
  IC50: > 2 µM
LU-139
  IC50: > 2 µM
NCI-H1770
  IC50: > 2 µM
CAS-1
  IC50: > 2 µM
OVCAR-4
  IC50: > 2 µM
KURAMOCHI
  IC50: > 2 µM
G-401
  IC50: 0.439 µM
NCI-H1092
  IC50: > 2 µM
LB2518-MEL
  IC50: 0.405 µM
NH-12
  IC50: 0.199 µM
EC-GI-10
  IC50: 0.535 µM
NCI-H69
  IC50: > 2 µM
HH
  IC50: 0.506 µM
NCI-H1838
  IC50: > 2 µM
SK-N-FI
  IC50: 1.1 µM
RCC10RGB
  IC50: > 2 µM
GB-1
  IC50: 0.238 µM
SF-268
  IC50: 0.326 µM
TGBC1TKB
  IC50: > 2 µM
RXF 393
  IC50: 0.917 µM
EFM-19
  IC50: 0.151 µM
KYSE-410
  IC50: 1.41 µM
MV4-11
  IC50: < 0.00781 µM
LB2241-RCC
  IC50: 0.125 µM
Lu-65
  IC50: > 2 µM
ATN-1
  IC50: 0.104 µM
SK-MEL-1
  IC50: > 2 µM
NCI-H720
  IC50: 0.0485 µM
NCI-H446
  IC50: 1.91 µM
COLO-320-HSR
  IC50: > 2 µM
ES6
  IC50: > 2 µM
SK-MEL-2
  IC50: 0.0266 µM
NKM-1
  IC50: 0.0473 µM
KGN
  IC50: 0.138 µM
EW-13
  IC50: > 2 µM
SW982
  IC50: 0.0425 µM
MN-60
  IC50: 0.372 µM
TE-1
  IC50: 0.553 µM
LU-99A
  IC50: 1.01 µM
LU-134-A
  IC50: 0.6 µM
HuP-T4
  IC50: 1.33 µM
NCI-H630
  IC50: > 2 µM
L-363
  IC50: 0.147 µM
EW-11
  IC50: 0.132 µM
NCI-H1355
  IC50: > 2 µM
KARPAS-299
  IC50: > 2 µM
M14
  IC50: 0.0506 µM
KG-1
  IC50: 0.409 µM
LAN-6
  IC50: > 2 µM

## Cn1c(=O)n(-c2ccc(C(C)(C)C#N)cc2)c2c3cc(-c4cnc5ccccc5c4)ccc3ncc21 [DACTOLISIB]
NCI-H23
  IC50: 0.219 µM
PSN1
  IC50: 0.0444 µM
SCH
  IC50: 0.0671 µM
EFO-21
  IC50: 0.288 µM
P30-OHK
  IC50: 0.0835 µM
TE-11
  IC50: 0.056 µM
IST-MES1
  IC50: 0.237 µM
A498
  IC50: 0.0752 µM
PANC-08-13
  IC50: 0.058 µM
VM-CUB-1
  IC50: 0.0334 µM
LS-123
  IC50: 0.0922 µM
EKVX
  IC50: 0.101 µM
HEL
  IC50: 0.109 µM
no-11
  IC50: 0.113 µM
SJSA-1
  IC50: 0.0385 µM
SH-4
  IC50: 0.0752 µM
NCI-H526
  IC50: 0.824 µM
LU-139
  IC50: 0.00777 µM
NCI-H1770
  IC50: 0.327 µM
CAS-1
  IC50: 0.207 µM
OVCAR-4
  IC50: 0.0734 µM
KURAMOCHI
  IC50: 0.266 µM
G-401
  IC50: 0.0408 µM
NCI-H1092
  IC50: 0.145 µM
LB2518-MEL
  IC50: 0.157 µM
NH-12
  IC50: 0.133 µM
NCI-H69
  IC50: 0.427 µM
HH
  IC50: 0.0157 µM
NCI-H1838
  IC50: 1.02 µM
SK-N-FI
  IC50: 0.148 µM
RCC10RGB
  IC50: 0.224 µM
GB-1
  IC50: 0.0542 µM
SF-268
  IC50: 0.102 µM
TGBC1TKB
  IC50: 0.0231 µM
RXF 393
  IC50: 0.0214 µM
EFM-19
  IC50: 0.0675 µM
KYSE-410
  IC50: 0.0595 µM
MV4-11
  IC50: 0.0287 µM
LB2241-RCC
  IC50: 0.014 µM
Lu-65
  IC50: 1.62 µM
ATN-1
  IC50: 0.0739 µM
SK-MEL-1
  IC50: > 2 µM
NCI-H720
  IC50: 0.00357 µM
NCI-H446
  IC50: 0.0951 µM
COLO-320-HSR
  IC50: 0.403 µM
ES6
  IC50: 0.0928 µM
SK-MEL-2
  IC50: 0.0767 µM
NKM-1
  IC50: 0.0548 µM
KGN
  IC50: 0.0563 µM
EW-13
  IC50: 0.0958 µM
SW982
  IC50: 0.0499 µM
MN-60
  IC50: 0.038 µM
TE-1
  IC50: 0.223 µM
LU-99A
  IC50: 0.117 µM
LU-134-A
  IC50: 0.079 µM
HuP-T4
  IC50: 0.127 µM
NCI-H630
  IC50: 0.913 µM
L-363
  IC50: 0.0107 µM
EW-11
  IC50: 0.0969 µM
NCI-H1355
  IC50: 0.0463 µM
KARPAS-299
  IC50: 1.79 µM
M14
  IC50: 0.06 µM
KG-1
  IC50: 0.0842 µM
LAN-6
  IC50: > 2 µM
